What all share (type): functional
Conditions in all cases: time 16-18 hrs, read-out: MIC100

In assay [1] the test system is Escherichia coli. Put plainly: Antibacterial activity against Escherichia coli ATCC 25922 assessed as inhibition of bacterial growth incubated for 16 to 18 hrs by CLSI protocol based method.
For assay [2], the system named is Staphylococcus aureus. Put plainly: Antibacterial activity against Staphylococcus aureus ATCC 29213 assessed as inhibition of bacterial growth incubated for 16 to 18 hrs by CLSI protocol based method.
Assay [3] relates to Klebsiella pneumoniae. Put plainly: Antibacterial activity against Klebsiella pneumoniae BAA 1705 assessed as inhibition of bacterial growth incubated for 16 to 18 hrs by CLSI protocol based method.
The subject of assay [4] is Acinetobacter baumannii. As to the kind of experiment: Antibacterial activity against carbapenem-resistant Acinetobacter baumannii BAA 1605 assessed as inhibition of bacterial growth incubated for 16 to 18 hrs by CLSI protocol based method.
Assay [5] deals with Pseudomonas aeruginosa. Put plainly: Antibacterial activity against Pseudomonas aeruginosa ATCC 27853 assessed as inhibition of bacterial growth incubated for 16 to 18 hrs by CLSI protocol based method.

Values after ≈ are worked out from the molar mass of the structure shown.

The values below come from ChEMBL document CHEMBL6134788, “Development of naphthalimide hydrazide derivatives as potent antibacterial agents against carbapenem-resistant A. baumannii” (RSC Med Chem, 2024).

With `O=C(CCN1C(=O)c2cccc3cccc(c23)C1=O)NNc1ccccc1`, the MIC was above 64 µg/mL in assay [1]; above 64 µg/mL in assay [2]; above 64 µg/mL in assay [3]; 8 µg/mL (≈ 22.3 µM) in assay [4]; above 64 µg/mL in assay [5].
For `O=C(CCN1C(=O)c2cccc3cccc(c23)C1=O)NNc1cc(F)cc(F)c1`, the MIC in assay [1], in assay [2], in assay [3], in assay [4] and in assay [5] was above 64 µg/mL throughout.
For `O=C(CCN1C(=O)c2cccc3cccc(c23)C1=O)NNc1cccc(Br)c1`, the MIC in assay [1], in assay [2], in assay [3], in assay [4] and in assay [5] was above 64 µg/mL in each case.
In the case of `COc1ccc(NNC(=O)CCN2C(=O)c3cccc4cccc(c34)C2=O)cc1`, the MIC in assay [1] was above 64 µg/mL; in assay [2] it was above 64 µg/mL; in assay [3], above 64 µg/mL; in assay [4] it was 4 µg/mL (≈ 10.3 µM); in assay [5], above 64 µg/mL.
As to `O=C(CCN1C(=O)c2cccc3cccc(c23)C1=O)NNc1cccc(F)c1`, the MIC in assay [1] is above 64 µg/mL; in assay [2] it was above 64 µg/mL; in assay [3], above 64 µg/mL; in assay [4], 1 µg/mL (≈ 2.65 µM); in assay [5] it was above 64 µg/mL.
Consider `O=C(NNc1ccc(Cl)cc1)[C@@H](Cc1ccccc1)N1C(=O)c2cccc3cccc(c23)C1=O`, for which the MIC is above 64 µg/mL in assay [1]; above 64 µg/mL in assay [2]; above 64 µg/mL in assay [3]; 4 µg/mL (≈ 8.51 µM) in assay [4]; above 64 µg/mL in assay [5].
Consider `O=C(CCN1C(=O)c2cccc3cccc(c23)C1=O)NNc1cc(Cl)cc(Cl)c1`, for which the MIC in assay [1], in assay [2], in assay [3], in assay [4] and in assay [5] was above 64 µg/mL in each case.
Turning to `N#Cc1ccc(NNC(=O)CCCN2C(=O)c3cccc4cccc(c34)C2=O)cc1`, the MIC in assay [1] is above 64 µg/mL; in assay [2], above 64 µg/mL; in assay [3], above 64 µg/mL; in assay [4], 2 µg/mL (≈ 5.02 µM); in assay [5], above 64 µg/mL.
